Measured values published in patent US20100022509A1, “Inhibitors of MshC and Homologs Thereof, and Methods of Identifying Same” (priority 2006, published 2010).
Like-named read-outs stand apart in the source and are kept apart here.

Target: T1, MshC (Mycobacterium tuberculosis, UniProt P9WJM9)
T1 sequence (P9WJM9 1-414): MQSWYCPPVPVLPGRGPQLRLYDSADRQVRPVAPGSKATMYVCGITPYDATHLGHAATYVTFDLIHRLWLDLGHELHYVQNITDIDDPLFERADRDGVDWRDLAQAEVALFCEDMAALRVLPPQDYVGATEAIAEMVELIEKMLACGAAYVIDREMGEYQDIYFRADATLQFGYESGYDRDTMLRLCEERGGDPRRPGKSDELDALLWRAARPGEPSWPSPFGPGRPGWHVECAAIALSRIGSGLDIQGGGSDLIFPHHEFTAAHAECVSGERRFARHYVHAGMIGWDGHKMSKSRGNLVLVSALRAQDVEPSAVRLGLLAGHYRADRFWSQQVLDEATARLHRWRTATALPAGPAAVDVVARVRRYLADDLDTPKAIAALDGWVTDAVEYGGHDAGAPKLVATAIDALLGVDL
Test: biochemical
Type: biochemical, M. tuberculosis

SMILES | IC50 (IC50) [mM] | other results
Nc1ncnc2c1ncn2[C@@H]1O[C@H](COS(=O)(=O)NC(=O)[C@@H](N)CS)[C@@H](O)[C@H]1O [5′-O-[N-(L-cysteinyl)sulfamoyl]adenosine, reference compound] |  | IC50 (assayed under the conditions described in [0186], read-out: IC50 (inhibits MshC)): ~4e-05 mM
CCC1CCCCN1CCCNC(=O)c1ccc2c(c1)N(Cc1ccccc1F)C(=O)c1ccccc1[S+]2[O-] (stereo not drawn) [Inhibitor 83-01] | > 3 | 
O=C(NCCCN1CCC(Cc2ccccc2)CC1)c1ccc2c(c1)N(Cc1ccccc1F)C(=O)c1ccccc1[S+]2[O-] (stereo not drawn) [Inhibitor 83-02] | > 3 | inhibition of MshC in words, compounds lacking the basic amino group or with groups in excess of 10 carbons on the remote amino residue: little or no inhibition
CN(CCCNC(=O)c1ccc2c(c1)N(Cc1ccccc1F)C(=O)c1ccccc1[S+]2[O-])C1CCCCC1 (stereo not drawn) [Inhibitor 83-03] | > 3 | 
O=C(NCCCSC1CCCCC1)c1ccc2c(c1)N(Cc1ccccc1F)C(=O)c1ccccc1[S+]2[O-] (stereo not drawn) [Inhibitor 83-04] | > 3 | 
CCCN(CCC)CCCNC(=O)c1ccc2c(c1)N(Cc1ccc(F)cc1)C(=O)c1ccccc1[S+]2[O-] (stereo not drawn) [Inhibitor 83-05] | > 3 | 
CCN(CC)CCCNC(=O)c1ccc2c(c1)N(Cc1cc(C)ccc1C)C(=O)c1ccccc1[S+]2[O-] (stereo not drawn) [Inhibitor 83-06] | > 3 | 
Cc1ccc(C)c(CN2C(=O)c3ccccc3[S+]([O-])c3ccc(C(=O)NCCCN4CCCCCC4)cc32)c1 (stereo not drawn) [Inhibitor 83-07] | 0.65 ± 0.05 | inhibition of MshC in words, 1,3-diaminopropyl residue with remote amino residue capable of protonation: measurable inhibition; inhibition of MshC in words, Z benzyl moiety with methyl groups in the 2,5 positions or unsubstituted: Weak but detectable inhibition; inhibition of MshC in words, compounds grouped by X (X=S, X=SO, X=SO2): Significant inhibition
Cc1ccc(C)c(CN2C(=O)c3ccccc3[S+]([O-])c3ccc(C(=O)NCCCN(C)C4CCCCC4)cc32)c1 (stereo not drawn) [Inhibitor 83-08] | ~3 | inhibition of MshC in words, compounds grouped by X (X=S, X=SO, X=SO2): Significant inhibition
Cc1ccc(C)c(CN2C(=O)c3ccccc3[S+]([O-])c3ccc(C(=O)NCCCSC4CCCCC4)cc32)c1 (stereo not drawn) [Inhibitor 83-09] | > 3 | 
O=C(NCCCN1CCOCC1)c1ccc2c(c1)N(Cc1ccccc1)C(=O)c1ccccc1[S+]2[O-] (stereo not drawn) [Inhibitor 83-10] | > 3 | 
CN(CCCNC(=O)c1ccc2c(c1)N(Cc1ccccc1)C(=O)c1ccccc1[S+]2[O-])C1CCCCC1 (stereo not drawn) [Inhibitor 83-11] | 0.4 ± 0.1 | inhibition of MshC in words, 1,3-diaminopropyl residue with remote amino residue capable of protonation: measurable inhibition; inhibition of MshC in words, compounds grouped by X (X=S, X=SO, X=SO2): Significant inhibition
O=C(NCCCSC1CCCCC1)c1ccc2c(c1)N(Cc1ccccc1)C(=O)c1ccccc1[S+]2[O-] (stereo not drawn) [Inhibitor 83-12] | > 3 | inhibition of MshC in words, compounds lacking the basic amino group or with groups in excess of 10 carbons on the remote amino residue: little or no inhibition
CCN1C(=O)c2ccccc2[S+]([O-])c2ccc(C(=O)NCCCN3CCOCC3)cc21 (stereo not drawn) [Inhibitor 83-13] | > 3 | 
CCN1C(=O)c2ccccc2[S+]([O-])c2ccc(C(=O)NCCCN3CCN(C)CC3)cc21 (stereo not drawn) [Inhibitor 83-14] | > 3 | 
CCN1C(=O)c2ccccc2[S+]([O-])c2ccc(C(=O)NCCCN3CCCCCC3)cc21 (stereo not drawn) [Inhibitor 83-15] | > 3 | 
CCCN(CCC)CCCNC(=O)c1ccc2c(c1)N(CC)C(=O)c1ccccc1[S+]2[O-] (stereo not drawn) [Inhibitor 83-16] | > 3 | 
CCCCN(CCCC)CCCNC(=O)c1ccc2c(c1)N(CC)C(=O)c1ccccc1[S+]2[O-] (stereo not drawn) [Inhibitor 83-17] | > 3 | 
CCN1C(=O)c2ccccc2[S+]([O-])c2ccc(C(=O)NCCCSC3CCCCC3)cc21 (stereo not drawn) [Inhibitor 83-18] | > 3 | 
CCN1C(=O)c2ccccc2S(=O)(=O)c2ccc(C(=O)NCCCN3CCCCCC3)cc21 [Inhibitor 83-19] | ~3 | 
CCCCN(CC)CCCNC(=O)c1ccc2c(c1)N(CC)C(=O)c1ccccc1S2(=O)=O [Inhibitor 83-20] | > 3 | 
CCC1CCCCN1CCCNC(=O)c1ccc2c(c1)N(Cc1cccc(C)c1)C(=O)c1ccccc1S2(=O)=O (stereo not drawn) [Inhibitor 83-21] | ~2 | 
Cc1cccc(CN2C(=O)c3ccccc3S(=O)(=O)c3ccc(C(=O)NCCCN4CCCC4)cc32)c1 [Inhibitor 83-22] | > 3 | 
Cc1cccc(CN2C(=O)c3ccccc3S(=O)(=O)c3ccc(C(=O)NCCCN4CCCCCC4)cc32)c1 [Inhibitor 83-23] | > 3 | 

SMILES | IC50 (IC50) [mM] | other results
CCCCN(C)CCCNC(=O)c1ccc2c(c1)N(Cc1cccc(C)c1)C(=O)c1ccccc1S2(=O)=O [Inhibitor 83-24] | 1.5 ± 0.5 | 
Cc1cccc(CN2C(=O)c3ccccc3S(=O)(=O)c3ccc(C(=O)NCCCN(C)C4CCCCC4)cc32)c1 [Inhibitor 83-25] | > 3 | 
O=C(NCCCN1CCN(c2cccc(Cl)c2)CC1)c1ccc2c(c1)N(Cc1ccc(Cl)cc1)C(=O)c1ccccc1S2(=O)=O [Inhibitor 83-26] | > 3 | inhibition of MshC in words, compounds lacking the basic amino group or with groups in excess of 10 carbons on the remote amino residue: little or no inhibition
CCC1CCCCN1CCCNC(=O)c1ccc2c(c1)N(Cc1ccc(Cl)cc1)C(=O)c1ccccc1S2(=O)=O (stereo not drawn) [Inhibitor 83-27] | 0.7 ± 0.25 | inhibition of MshC in words, 1,3-diaminopropyl residue with remote amino residue capable of protonation: measurable inhibition; inhibition of MshC in words, Z is a benzyl moiety bearing one or more halogens: Measurable inhibition; inhibition of MshC in words, compounds grouped by X (X=S, X=SO, X=SO2): Significant inhibition
O=C(NCCCN1CCCC1)c1ccc2c(c1)N(Cc1ccc(Cl)cc1)C(=O)c1ccccc1S2(=O)=O [Inhibitor 83-28] | 0.25 ± 0.1 | inhibition of MshC in words, 1,3-diaminopropyl residue with remote amino residue capable of protonation: measurable inhibition; inhibition of MshC in words, Z is a benzyl moiety bearing one or more halogens: Measurable inhibition; inhibition of MshC in words, compounds grouped by X: Significant inhibition
CC1CC(C)CN(CCCNC(=O)c2ccc3c(c2)N(Cc2ccc(Cl)cc2)C(=O)c2ccccc2S3(=O)=O)C1 (stereo not drawn) [Inhibitor 83-29] | > 3 | 
CC1CCCCN1CCNC(=O)c1ccc2c(c1)N(Cc1ccc(Cl)cc1)C(=O)c1ccccc1S2(=O)=O (stereo not drawn) [Inhibitor 83-30] | > 3 | 
O=C(NCCCN1CCN(c2ccc(F)cc2)CC1)c1ccc2c(c1)N(Cc1ccc(Cl)cc1)C(=O)c1ccccc1S2(=O)=O [Inhibitor 83-32] | ~2 | inhibition of MshC in words, compounds lacking the basic amino group or with groups in excess of 10 carbons on the remote amino residue: little or no inhibition
O=C(NCCCN1CCC(Cc2ccccc2)CC1)c1ccc2c(c1)N(Cc1ccc(Cl)cc1)C(=O)c1ccccc1S2(=O)=O [Inhibitor 83-33] | > 3 | inhibition of MshC in words, compounds lacking the basic amino group or with groups in excess of 10 carbons on the remote amino residue: little or no inhibition
CC(C)CN(CCCNC(=O)c1ccc2c(c1)N(Cc1ccc(Cl)cc1)C(=O)c1ccccc1S2(=O)=O)CC(C)C [Inhibitor 83-34] | > 3 | 
CN(CCCNC(=O)c1ccc2c(c1)N(Cc1ccc(Cl)cc1)C(=O)c1ccccc1S2(=O)=O)C1CCCCC1 [Inhibitor 83-35] | 0.35 ± 0.04 | inhibition of MshC in words, compounds grouped by X (X=S, X=SO, X=SO2): Significant inhibition
CN(CCCNC(=O)c1ccc2c(c1)N(Cc1ccc(Cl)cc1)C(=O)c1ccccc1S2(=O)=O)c1ccccc1 [Inhibitor 83-36] | > 3 | 
O=C(NCCN1CCCC1)c1ccc2c(c1)N(Cc1ccccc1F)C(=O)c1ccccc1S2(=O)=O [Inhibitor 83-39] | 0.1 ± 0.02 | inhibition of MshC in words, 1,3-diaminopropyl residue with remote amino residue capable of protonation: measurable inhibition; inhibition of MshC in words, Z is a benzyl moiety bearing one or more halogens: Measurable inhibition; inhibition of MshC in words, compounds grouped by X (X=S, X=SO, X=SO2): Significant inhibition
CC1CCCN(CCCNC(=O)c2ccc3c(c2)N(Cc2ccccc2F)C(=O)c2ccccc2S3(=O)=O)C1 (stereo not drawn) [Inhibitor 83-40] | 0.1 ± 0.03 | inhibition of MshC in words, 1,3-diaminopropyl residue with remote amino residue capable of protonation: measurable inhibition; inhibition of MshC in words, Z is a benzyl moiety bearing one or more halogens: Measurable inhibition; inhibition of MshC in words, compounds grouped by X (X=S, X=SO, X=SO2): Significant inhibition
O=C(NCCN1CCN(Cc2ccccc2)CC1)c1ccc2c(c1)N(Cc1ccccc1F)C(=O)c1ccccc1S2(=O)=O [Inhibitor 83-42] | > 3 | inhibition of MshC in words, compounds lacking the basic amino group or with groups in excess of 10 carbons on the remote amino residue: little or no inhibition
Cc1ccc(C)c(CN2C(=O)c3ccccc3S(=O)(=O)c3ccc(C(=O)NCCCN4CCOCC4)cc32)c1 [Inhibitor 83-43] | > 3 | 
Cc1ccc(C)c(CN2C(=O)c3ccccc3S(=O)(=O)c3ccc(C(=O)NCCCN4CCCCCC4)cc32)c1 [Inhibitor 83-44] | > 0.5 | inhibition of MshC in words, 1,3-diaminopropyl residue with remote amino residue capable of protonation: measurable inhibition
Cc1ccc(C)c(CN2C(=O)c3ccccc3S(=O)(=O)c3ccc(C(=O)NCCN4CCCCC4C)cc32)c1 (stereo not drawn) [Inhibitor 83-45] | > 3 | 
Cc1ccc(C)c(CN2C(=O)c3ccccc3S(=O)(=O)c3ccc(C(=O)NCCCN(C)C4CCCCC4)cc32)c1 [Inhibitor 83-46] | ≥ 0.5 | 
Cc1ccc(C)c(CN2C(=O)c3ccccc3S(=O)(=O)c3ccc(C(=O)NCCCSC4CCCCC4)cc32)c1 [Inhibitor 83-47] | > 3 | inhibition of MshC in words, compounds lacking the basic amino group or with groups in excess of 10 carbons on the remote amino residue: little or no inhibition
CCC1CCCCN1CCCNC(=O)c1ccc2c(c1)N(Cc1ccccc1)C(=O)c1ccccc1S2(=O)=O (stereo not drawn) [Inhibitor 83-48] | ≥ 0.5 | 
CC1CC(C)CN(CCCNC(=O)c2ccc3c(c2)N(Cc2ccccc2)C(=O)c2ccccc2S3(=O)=O)C1 (stereo not drawn) [Inhibitor 83-49] | ~2 | 
CCN1CCN(CCCNC(=O)c2ccc3c(c2)N(Cc2ccccc2)C(=O)c2ccccc2S3(=O)=O)CC1 [Inhibitor 83-50] | > 3 | 
CC1CCCN(CCCNC(=O)c2ccc3c(c2)N(Cc2ccccc2)C(=O)c2ccccc2S3(=O)=O)C1 (stereo not drawn) [Inhibitor 83-51] | 1.7 ± 0.4 | 
